In patent US20240116926A1, “HETEROAROMATIC COMPOUNDS” (AstraZeneca AB, priority 2022, published 2024):
Values after ≈ are worked out from the molar mass of the structure shown.

Columns and labels:
TEAD4(217-434) = TEAD4(217-434) (Homo sapiens (Human), UniProt Q15561); assay: TEAD4 FRET; type: binding; conditions: depalmitoylated, biotinylated TEAD4(217-434), FAM labelled Probe A, 120 min at 25° C.
Protocol: Compounds were dosed with a final DMSO concentration of 1% (v/v). Compound IC50 values were assessed following a 10-point, half-log10 dilution schema starting at 100 μM compound concentration. Specifically, human TEAD protein from TEAD4(217-434) was cloned into an overexpression vector, expressed as an N-terminal HIS-TEV-Avi-tagged fusion protein in E coli, and subsequently purified, then protein was chemically depalmitoylated & biotinylated. The assay was performed in 384-well LV plates (384-well black, medium binding, PS, HIBASE, GREINER #784076) and run in the presence and absence of the compound of interest. Each well of 5 μL assay mixture contained 10 mM Tris-HCl (pH 7.5), 100 mM NaCl, 0.05 mM EDTA, 1 mM TECP, 1% DMSO, 0.03% Pluronic acid F127, 20 nM dePal Avi TEAD4 (217-434)-depalmitoylated & biotinylated protein, 0.8 nM Streptavidin Terbium cryptate (CisBio #610SATLB), 625 nM FAM labelled Probe A. Reactions were incubated at 25° C. for 120 min before reading on a PHERASTAR FSX Plate Reader (337 520 490 HTRF module required) (Supplier BMP).
The data file from the PHERAstar FSX contains both the acceptor (520 nm) and donor channels (490 nm) (“Channel A”=acceptor channel (520 nm), “Channel B”=donor channel (490 nm)). The ratio of the donor and acceptor (Channel A/Channel B) is calculated within Genedata Assay Analyzer.
Probe A is 3′,6′-dihydroxy-3-oxo-N-{8-[2-(5-{2-[4-(trifluoromethyl)anilino]phenyl}-2H-tetrazol-2-yl)acetamido]octyl}-3H-spiro[[2]benzofuran-1,9′-xanthene]-5-carboxamide;

[1] = Protein binding measurements in human plasma (Hu PPB); type: in vitro ADME; conditions: equilibrium dialysis for 18 hours, fraction unbound
Protocol: The automated equilibrium dialysis assay in human plasma uses the RED (Rapid Equilibrium Dialysis) Device and sample handling. The assay generally runs over two to three days including delivery of results. After dialysis for 18 hours, plasma and buffer samples are prepared for analysis by liquid chromatography and mass spectrometry. Samples are generally tested in singlicates and quantified by LC/MSMS by using a 7-point calibration curve in plasma. The compounds are pooled together in plasma pools up to 10 compounds. Three reference compounds are used in each run, Propranolol, Metoprolol and Warfarin. Warfarin is used as a control in each pool and Propranolol and Metoprolol are placed randomly in each run. An in-house Excel macro is used for preparation of files for the robot and the mass spectrometer and is also used for the calculations of fraction unbound (fu %) in plasma.

[2] = Solubility (thermodynamic, shake-flask); type: physicochemical; conditions: thermodynamic from solid; aqueous phosphate buffer (pH 7.4), 24 hours at 25° C.
Protocol: The thermodynamic solubility of a research compound is measured under standard conditions. It is a shake-flask approach that uses 10 mM DMSO solutions which are supplied from the Compound Managements liquid store and is a high throughput method. The dried compounds are equilibrated in an aqueous phosphate buffer (pH 7.4) for 24 hours at 25° C., the portion with the dissolved compound is then separated from the remains. The solutions are analyzed and quantified using UPLC/MS/MS, QC-samples are incorporated in each assay-run to ensure the quality of the assay.

[3] = tested on: MCF7-Luciferase cell line; assay: Control reporter (MCF7-Luciferase); type: cell-based; conditions: MCF7-Luciferase cells, luciferase activity after 24 hours
Protocol: (iii) Control Reporter (MCF7-Luciferase)
MCF7-Luciferase cell line was obtained from […] (catalog number SC050-L) and was maintained in DMEM containing 10% fetal calf serum, 2 mM glutamine. Cells were grown in a humidified incubator at 37° C. with 5% CO2. Cells were distributed to flat bottom white polystyrene TC treated 384 well plates at a density of 3,500 cells/well in 30 μL. Cells were incubated for 24 hours at 37° C. with 5% CO2. Cells were acoustically dosed using an Echo 555, with compounds serially diluted in 100% DMSO. Plates were incubated for an additional 24 hours. Cells were examined for luciferase activity through the addition of 30 μL Bright-Glo luciferase (Promega catalog number E2620). Plates were incubated for 10 minutes at room temperature and luminescence was read using Tecan plate reader. The data obtained with each compound was exported to […] software to perform curve fitting analysis.

MCF7-Tead cell line = assay: TEAD reporter assay; type: cell-based; conditions: MCF7-Tead cells, luciferase activity after 24 hours
Protocol: MCF7-Tead cell line was obtained from BPS BIOSCIENCE (catalog number 60618) and was maintained in DMEM containing 10% fetal calf serum, 2 mM glutamine, and 400 μg/ml G418. Cells were grown in a humidified incubator at 37° C. with 5% CO2. Cells were distributed to flat bottom white polystyrene TC treated 384 well plates at a density of 3,500 cells/well in 30 uL. Cells were incubated for 24 hours at 37° C. with 5% CO2. Cells were acoustically dosed using an Echo 555, with compounds serially diluted in 100% DMSO. Plates were incubated for an additional 24 hours. Cells were examined for luciferase activity through the addition of 30 μL Bright-Glo luciferase (Promega catalog number E2620). Plates were incubated for 10 minutes at room temperature and luminescence was read using Tecan plate reader. The data obtained with each compound was exported to […] software to perform curve fitting analysis.

Sequence of TEAD4(217-434) (Q15561 217-434): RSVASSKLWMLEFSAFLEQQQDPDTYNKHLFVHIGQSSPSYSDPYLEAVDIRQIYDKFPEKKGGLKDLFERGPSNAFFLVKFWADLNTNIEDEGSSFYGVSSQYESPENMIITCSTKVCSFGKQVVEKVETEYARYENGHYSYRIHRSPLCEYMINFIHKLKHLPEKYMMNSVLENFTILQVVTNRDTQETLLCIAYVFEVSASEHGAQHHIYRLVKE

Row | SMILES | IC50 (TEAD4(217-434)) [nM] | Hu PPB (% free) [1] [% free] | solubility at 24 h [2] [µM] | IC50 [3] [nM] | IC50 (MCF7-Tead cell line) [nM]
1 | C=CC(=O)N1CC[C@H](Nc2nnc(-c3ccc(C(F)(F)F)cn3)c3ccccc23)C1 [Example 18, (S)-1-(3-((4-(5-(trifluoromethyl)pyridin-2-yl)phthalazin-1-yl)amino)pyrrolidin-1-yl)prop-2-en-1-one] | 200 | 10.0 | 47 (≈ 19.4 µg/mL) | > 31700 | 255
2 | C=CC(=O)N1C[C@H](CO)[C@@H](Nc2nnc(-c3ccc(C(F)(F)F)cc3)c3ccccc23)C1 [Example 22, 1-((3S,4R)-3-(hydroxymethyl)-4-((4-(4-(trifluoromethyl)phenyl)phthalazin-1-yl)amino)pyrrolidin-1-yl)prop-2-en-1-one] | 950 | 5.4 | 65 (≈ 28.8 µg/mL) | > 31700 | 957
3 | C=CC(=O)N1C[C@@H](CO)[C@H](Nc2nnc(-c3ccc(C(F)(F)F)cc3)c3ncccc23)C1 [Example 25, 1-((3R,4S)-3-(hydroxymethyl)-4-((8-(4-(trifluoromethyl)phenyl)pyrido[2,3-d]pyridazin-5-yl)amino)pyrrolidin-1-yl)prop-2-en-1-one] | 57 | 12.0 | 32 (≈ 14.2 µg/mL) | > 31700 | 25
4 | C=CC(=O)N1C[C@@H](CO)[C@H](Nc2nnc(-c3ccc(C(F)(F)F)cc3)c3cccnc23)C1 [Example 26, 1-((3R,4S)-3-(hydroxymethyl)-4-((5-(4-(trifluoromethyl)phenyl)pyrido[2,3-d]pyridazin-8-yl)amino)pyrrolidin-1-yl)prop-2-en-1-one] | 76 | 26.0 | 175 (≈ 77.6 µg/mL) | > 31700 | 42
5 | C=CC(=O)N1C[C@@H](COC)[C@H](Nc2nnc(-c3ccc(C(F)(F)F)cc3)c3ccccc23)C1 [Example 28, 1-((3R,4S)-3-(methoxymethyl)-4-((4-(4-(trifluoromethyl)phenyl)phthalazin-1-yl)amino)pyrrolidin-1-yl)prop-2-en-1-one] | 61 | 3.9 | 168 (≈ 76.7 µg/mL) | > 31700 | 71
6 | C=CC(=O)N1C[C@H](O)[C@H](Nc2nnc(-c3ccc(C(F)(F)F)cc3)c3ncccc23)C1 [Example 32, 1-((3S,4R)-3-hydroxy-4-((8-(4-(trifluoromethyl)phenyl)pyrido[2,3-d]pyridazin-5-yl)amino)pyrrolidin-1-yl)prop-2-en-1-one] | 42 | 16.0 | 52 (≈ 22.3 µg/mL) | > 31700 | 65
7 | C=CC(=O)N1C[C@H](O)[C@H](Nc2nnc(-c3ccc(C(F)(F)F)cc3)c3cccnc23)C1 [Example 33, 1-((3S,4R)-3-hydroxy-4-((5-(4-(trifluoromethyl)phenyl)pyrido[2,3-d]pyridazin-8-yl)amino)pyrrolidin-1-yl)prop-2-en-1-one] | 68 | 17.0 | 365 (≈ 157 µg/mL) | > 31700 | 107
8 | C=CC(=O)N1C[C@@H](CO)[C@H](Nc2ncc(-c3ccc(C(F)(F)F)cn3)c3ncccc23)C1 [Example 37, 1-((3R,4S)-3-(hydroxymethyl)-4-((8-(5-(trifluoromethyl)pyridin-2-yl)-1,6-naphthyridin-5-yl)amino)pyrrolidin-1-yl)prop-2-en-1-one] | 180 | 17.0 | 155 (≈ 68.7 µg/mL) | > 31700 | 33
9 | C=CC(=O)NC1(CNc2nnc(-c3ccc(C(F)(F)F)cc3)c3ccccc23)CCC1 [Example 41, N-(1-(((4-(4-(trifluoromethyl)phenyl)phthalazin-1-yl)amino)methyl)cyclobutyl)acrylamide] | 72 | 0.9 | 72 (≈ 30.7 µg/mL) | 21500 | 152
10 | C=CC(=O)NCC1(Nc2nnc(-c3ccc(C(F)(F)F)cc3)c3ccccc23)CCC1 [Example 42, N-((1-((4-(4-(trifluoromethyl)phenyl)phthalazin-1-yl)amino)cyclobutyl)methyl)acrylamide] | 70 | 0.8 | 19 (≈ 8.1 µg/mL) | 19600 | 672

Continued, values first:

Row | IC50 (TEAD4(217-434)) [nM] | Hu PPB (% free) [1] [% free] | solubility at 24 h [2] [µM] | IC50 [3] [nM] | IC50 (MCF7-Tead cell line) [nM] | SMILES
11 | 42 | 4.7 | 48 (≈ 21.2 µg/mL) | > 31700 | 14 | C=CC(=O)N1C[C@@H](CO)[C@H](Nc2nnc(-c3ccc(C(F)(F)F)cc3)c3ccccc23)C1 [Example 23, 1-((3R,4S)-3-(hydroxymethyl)-4-((4-(4-(trifluoromethyl)phenyl)phthalazin-1-yl)amino)pyrrolidin-1-yl)prop-2-en-1-one]
12 | 23 | 1.9 | 32 (≈ 14.2 µg/mL) | > 31700 | 16 | C=CC(=O)N1C[C@@H](CO)[C@H](Nc2ncc(-c3ccc(C(F)(F)F)cc3)c3ncccc23)C1 [Example 24, 1-((3R,4S)-3-(hydroxymethyl)-4-((8-(4-(trifluoromethyl)phenyl)-1,6-naphthyridin-5-yl)amino)pyrrolidin-1-yl)prop-2-en-1-one]
13 | 29 | 6.0 | 63 (≈ 27.9 µg/mL) | > 31700 | 23 | C=CC(=O)N1C[C@@H](CO)[C@H](Nc2ncc(-c3ccc(C(F)(F)F)cc3)c3nccnc23)C1 [Example 27, 1-((3R,4S)-3-(hydroxymethyl)-4-((8-(4-(trifluoromethyl)phenyl)pyrido[3,4-b]pyrazin-5-yl)amino)pyrrolidin-1-yl)prop-2-en-1-one]
14 | 13 | 1.4 | 20 (≈ 8.25 µg/mL) | > 31700 | 5 | C=CC(=O)N1CC[C@H](Nc2ncc(-c3ccc(C(F)(F)F)cc3)c3ncccc23)C1 [Example 39, (S)-1-(3-((8-(4-(trifluoromethyl)phenyl)-1,6-naphthyridin-5-yl)amino)pyrrolidin-1-yl)prop-2-en-1-one]
15 | 12 | 3.9 | 13.6 (≈ 5.62 µg/mL) | 19000 | 11 | C=CC(=O)N1CC[C@H](Nc2ncc(-c3ccc(C(F)(F)F)cc3)c3nccnc23)C1 [Example 45, (S)-1-(3-((8-(4-(trifluoromethyl)phenyl)pyrido[3,4-b]pyrazin-5-yl)amino)pyrrolidin-1-yl)prop-2-en-1-one]
